Data reported in publication PMC6406907, “A H2AX–CARP-1 Interaction Regulates Apoptosis Signaling Following DNA Damage” (Cancers, 2019).
No end group written: not given here. HA = not defined here

Assays:
HeLa cells = experiment: Transduction/localization of TAT-tagged proteins, HeLa; type: cell-based, human; settings: 300 μg/mL, confocal
Procedure: (§1) Cells were plated onto chamber slides one day before treatment. Following treatment of cells with respective compounds, the adherent cells were fixed with 5% formaldehyde for 10 min and then washed with phosphate buffered saline (PBS). Samples were blocked (0.5% NP-40, 5% milk powder, 1% fetal bovine serum) for 30 min. After a single wash with PBS, cells were incubated with primary antibodies for 45 to 60 min. Coverslips were washed with PBS and then incubated with secondary antibodies for another 45 to 60 min. They were then washed with PBS and mounted with 0.1 μg/mL 4′,6′-diamidino-2-phenylindole (DAPI) containing mounting solution. […]
(§2) We further tested whether and the extent to which transient and ectopic expression of CARP-1 (636–650) peptide would also interfere with the cell-growth inhibition by Adriamycin. […] The wild-type MDA-MB-468 or HeLa cells were pre-incubated with His-TAT-HA-EGFP or His-TAT-HA-CARP-1 (636–650) proteins, and presence of GFP and CARP-1 (636–650) was determined by immuno-cytochemical staining followed by photography using a confocal microscope as above. […]
(§3) Figure S9. […] Multiple cells from each of the confocal images in the γH2AX column of Figure 8C were subjected to quantitation for levels of γH2AX. The quantitation of the images of stained cells was carried out by using ImageJ software (imagej.nih.gov/ij/plugins/track/jacop2). […]

MDA-MB-468 cells [1] = experiment: Transduction/localization of TAT-tagged proteins, MDA-MB-468; type: cell-based, human; settings: MDA-MB-468, 300 μg/mL, confocal
Procedure: as §1, §2, §3

MDA-MB-468 cells [2] = settings: 10 μM dose, ref [16]; cited from earlier work
From the text: Here, we utilized human TNBC MDA-MB-468 and human cervical cancer HeLa cells to conduct an MTT-based dose-response analysis using Adriamycin and CFM compounds. […] Since Adriamyci ...

γH2AX = experiment: Confocal immunofluorescence of γH2AX, HeLa; type: cell-based, human; settings: HeLa expressing EGFP-H2AX (1–35) vs EGFP, Adriamycin-treated
Procedure: as §1
Our next objective was to analyze the biological significance of the CARP-1–H2AX interaction in cells. […] Next, we measured activation of caspases as an apoptosis readout in cells expressing myc-His-tagged wild-type CARP-1 or CARP-1 (Δ600–650) proteins that were either untreated or treated with Adriamycin or CFM compounds as detailed in Section 2. We utilized a lower, 4–5 μM dose of Adriamycin or CFM compounds because a 10 μM Adriamycin dose caused interference in signal output/readout in this particular assay, likely due to background fluorescence that is emitted by higher dose of Adriamycin. […]

Molecule: His-TAT-HA-CARP-1 (636–650): His-TAT-HA-tagged CARP-1 (636–650) peptide, >95% purity, commercially synthesized ({His-TAT-HA}-PKTMKVNDLRKELES; reading uncertain; UniProt Q8IX12 636-650, looked up, fragment)
- cellular localization after transduction (HeLa cells): predominantly present in the cytoplasmic region
- cellular localization after transduction (MDA-MB-468 cells [1]): predominantly present in the cytoplasmic region

Molecule: O=C1N(Cc2ccccc2Cl)c2ccccc2C12NN=C(c1cccc(Cl)c1)S2 (stereo not shown) [CFM-4.16]
- inhibition of growth (MDA-MB-468 cells [2]): robust inhibition of growth

Molecule: EGFP-H2AX (1–35): EGFP-tagged fusion protein stably expressed in MDA-MB-468 and HeLa sublines (MSGRGKTGGKARAKAKSRSSRAGLQFPVGRVHRLL; also: EGFP fusion, end not given here; UniProt P16104 1-35, looked up, fragment)
- nuclear presence of γH2AX (γH2AX): increased nuclear presence of γH2AX
